Assay results as given in patent US20240261310A1, “APPLICATION OF ALGINATE OLIGOSACCHARIDES” (HAITANG (JIANGSU) BIOTECHNOLOGY COMPANY, LTD., priority 2021, published 2024).

Key:
Format in all cases: in vivo
[1] = tested on: rats with AKI induced by renal ischemia-reperfusion (I/R) injury; assay: Rat acute kidney injury (AKI) induced by ischemia-reperfusion (I/R); conditions: for 24-hour urine output / level of serum creatinine: Sprague Dawley rats, intragastric; for level of serum creatinine: 24 h after I/R; for mRNA levels of Kim-1 and NGAL in kidney tissues / inflammatory factors in kidney tissues (TLR4, p-NFκB/NFκB, pro-IL-1β/IL-1β): renal cortex; for mRNA levels of Kim-1 and NGAL in kidney tissues: 0.1 g/kg/day intragastric; for inflammatory factors in kidney tissues (TLR4, p-NFκB/NFκB, pro-IL-1β/IL-1β): western blotting, doses 0.01, 0.05, 0.1 g/kg/day, dose dependent
From the text: Ischemia-reperfusion induced kidney injury is a classical animal model that simulates the acute kidney injury caused by clinical hypoperfusion. With the rat ischemia-reperfusion model, the author of the invention administered the alginate oligosaccharides with a uniform degree of polymerization as prepared by Example 1-3 and a mixture thereof, and then carried out comparison with a blank group and a non-administrated model group to investigate the therapeutic effects of the several alginate oligosaccharides with a uniform degree of polymerization.
30 male Sprague Dawley rats (purchased from the Laboratory Animal Center of Sun Yat-sen University) of 220-250 grams were selected. Before treatment, the 24-hour urine output was collected and measured without abnormalities. The rats to be modeled were randomly divided into the following groups: a sham group, a model group, and three alginate disaccharide groups with the doses of 0.01 g/kg/day, 0.05 g/kg/day and 0.1 g/kg/day respectively (6 rats in each group). In the present invention, the alginate disaccharide is abbreviated as “AOS2”. Intragastric administration was adopted, and rats in the model group and the sham group were all fed by gavage with the same volume of normal saline. On the day of operation, the rats were anesthetized intraperitoneally with 3% pentobarbital sodium and subjected to routine skin disinfection. The abdomen was sectioned to expose the left and right kidneys. In the sham group, the kidneys were only examined, and then the incision was sutured layer by layer to end the operation. In the model group and the modeled administration group, large bulldog clamps were used for occlusion of the renal pedicles on both sides, then the kidneys were recovered in place, and the incision was covered with gauze and dropwise added with a small amount of normal saline for rehydration. After 45 minutes, the bulldog clamps on both sides were released, and the incision was sutured layer by layer to end the operation. After operation, the rats were placed on a heating pad at 37° C. to wait for resuscitation, and then placed back into metabolic cages, in which the weight, food intake, water intake and urine output of the rats were measured. The rats were routinely fed after operation and sacrificed 24 hours later for sampling. […] Then, the serum creatinine in the rats was determined by using the creatinine assay kit from Nanjing Jiancheng, with the results shown in FIG. 10. During sampling, the kidneys on both sides were isolated, the cortex and inner medulla of each kidney were isolated, and the cortex was stored in trizol. When in use, mRNAs in the cortex were extracted using the trizol method, and the mRNA expressions of AKI biomarkers (KIM-1 and NGAL) were detected. A tissue lysis buffer was added to homogenize the kidneys by ultrasound, the total protein was then extracted, and the inflammatory factors (p-NFκB/NFκB and pro-IL-1β/IL-1β) in the renal cortex tissues were detected by western blotting. The experimental data were statistically analyzed by one-way ANOVA.
With the same experimental method as that for the alginate disaccharides, the effect of alginate trisaccharides against the rat acute kidney injury induced by ischemia-reperfusion was investigated. In the present invention, the alginate trisaccharide is abbreviated as “AOS3”. The serum creatinine in the rats was determined by using the creatinine assay kit from Nanjing Jiancheng, with the results shown in FIG. 14. During sampling, the kidneys on both sides were isolated, the cortex and inner medulla of each kidney were isolated, and the cortex was stored in trizol. When in use, mRNAs in the cortex were extracted using the trizol method, and the mRNA expression of AKI biomarkers (KIM-1 and NGAL) was detected. […]

[2] = tested on: mice with AKI induced by cisplatin; assay: Mouse acute kidney injury induced by cisplatin
From the text: Cisplatin-induced kidney injury is a classical and standard animal model that simulates the acute kidney injury induced by drugs that cause nephrotoxicity. With the mouse cisplatin model, we administered the alginate oligosaccharides with different uniform degrees of polymerization and a mixture thereof, and then compared with a blank group and a non-administrated model group to investigate the therapeutic effects of the individual alginate oligosaccharides with a uniform degree of polymerization.
30 male C57BL/J6 mice of 22-28 grams were selected. Before treatment, the 24-hour urine output was collected and measured without abnormalities. The mice to be modeled were randomly divided into the following groups: a control group, a model group, a model+low-dose administration group (AOS3 at 0.05 g/kg/day), a model+medium-dose administration group (AOS3 at 0.1 g/kg/day), and a model+high-dose administration group (AOS3 at 0.2 g/kg/day), with 6 mice in each group. The alginate trisaccharides was intragastrically administered, and the model group and the control group were all fed by gavage with the same volume of normal saline. Cisplatin was used to induce the drug toxin-associated acute kidney injury. During modeling, each model group was intraperitoneally injected with cisplatin at 20 mg/kg, and the control group was intraperitoneally injected with the same volume of normal saline. Immediately after modeling, the mice were put back into the mouse metabolic cages for observation, during which the weight, food intake, water intake and urine output of the mice were measured (see FIG. 37 for the results). The mice were sacrificed 72 hours later for sampling, and urine was collected. […] Then, the serum creatinine in the mice was determined by using the creatinine assay kit from Nanjing Jiancheng, with the results shown in FIG. 36. During sampling, the kidneys on both sides were isolated, the cortex and inner medulla of each kidney were isolated, and the cortex was stored in trizol. When in use, mRNAs in the cortex were extracted using the trizol method, and the mRNA expressions of AKI biomarkers (KIM-1 and NGAL, with the results shown in FIG. 38) were detected by the Qpcr method. A tissue lysis buffer was added to homogenize the kidneys by ultrasound, the total protein was then extracted, and the inflammatory factors (p-NFκB/NFκB and IL-1β) in the renal cortex tissues were detected by western blotting. The experimental data were statistically analyzed by one-way ANOVA.

[3] = tested on: mice with AKI induced by endotoxin phosphorus lipopolysaccharides (LPS); assay: Mouse acute kidney injury induced by endotoxin phosphorus lipopolysaccharides (LPS); conditions: for level of serum creatinine: C57/B16 mice, LPS 15 mg/kg i.p., 24 h; for level of serum creatinine / gene expressions of inflammatory factors (IL-1β, IL-18, TNF-α, MCP-1) / mRNA levels of Kim-1 and NGAL in kidney tissues / protein expressions of renal inflammatory factors (TLR4, p-NFκB/NFκB, pro-IL-1β/IL-1β): 0.1 g/kg/day intragastric; for gene expressions of inflammatory factors (IL-1β, IL-18, TNF-α, MCP-1) / mRNA levels of Kim-1 and NGAL in kidney tissues / protein expressions of renal inflammatory factors (TLR4, p-NFκB/NFκB, pro-IL-1β/IL-1β): renal cortex, vs LPS group; for gene expressions of inflammatory factors (IL-1β, IL-18, TNF-α, MCP-1) / mRNA levels of Kim-1 and NGAL in kidney tissues: Qpcr; for protein expressions of renal inflammatory factors (TLR4, p-NFκB/NFκB, pro-IL-1β/IL-1β): western blotting
From the text: The kidney injury induced by treatment with endotoxin phosphorus lipopolysaccharides is a classical and standard animal model that simulates the acute kidney injury induced by clinical infection. With the mouse endotoxin phosphorus lipopolysaccharide model, we administered the alginate oligosaccharides with different uniform degrees of polymerization and a mixture thereof, and then compared with a blank group and a non-administrated model group to investigate the therapeutic effects of the individual alginate oligosaccharides with a uniform degree of polymerization.
24 male C57/B16 mice of 22-28 grams were selected. […] LPS was used for modeling to induce the occurrence of sepsis-associated acute kidney injury. During modeling, each model group was intraperitoneally injected with LPS at 15 mg/kg, and the control group was intraperitoneally injected with the same volume of normal saline. Immediately after modeling, the mice were put back into the mouse metabolic cages for observation, in which the weight, food intake, water intake and urine output of the mice were measured. The mice were sacrificed 24 hours later for sampling, and urine was collected. […] Then, the serum creatinine in the mice was determined by using the creatinine assay kit from Nanjing Jiancheng, with the results shown in FIG. 23. During sampling, the kidneys on both sides were isolated, the cortex and inner medulla of each kidney were isolated, and the cortex was stored in trizol. When in use, mRNAs in the cortex were extracted using the trizol method, and the mRNA expressions of AKI biomarkers (KIM-1 and NGAL, with the results shown in FIG. 24) and inflammatory factors (IL-1β, IL-18, TNF-α, and MCP-1, with the results shown in FIG. 25) were detected by the Qpcr method. A tissue lysis buffer was added to homogenize the kidneys by ultrasound, the total protein was then extracted, and the inflammatory factors (p-NFκB/NFκB, pro-IL-1β/IL-1β) in the renal cortex tissues were detected by western blotting. The experimental data were statistically analyzed by one-way ANOVA.
The same experimental method was used as that for the alginate disaccharides. The serum creatinine in the mice was determined by using the creatinine assay kit from Nanjing Jiancheng, with the results shown in FIG. 27. During sampling, the kidneys on both sides were isolated, the cortex and inner medulla of each kidney were isolated, and the cortex was stored in trizol. When in use, mRNAs in the cortex were extracted using the trizol method, and the mRNA expressions of AKI biomarkers (KIM-1 and NGAL, with the results shown in FIG. 28) and inflammatory factors (IL-1β, IL-18, TNF-α, and MCP-1, with the results shown in FIG. 29) were detected by the Qpcr method. A tissue lysis buffer was added to homogenize the kidneys by ultrasound, the total protein was then extracted, and the inflammatory factors (p-NFκB/NFκB, pro-IL-IP/IL-1β) in the renal cortex tissues were detected by western blotting. In addition, the animals were sacrificed after the last blood collection, the kidneys were fixed in 4% formaldehyde solution, and subjected to conventional paraffin embedding, sectioning, and HE staining to observe the general kidney tissue morphology under a light microscope. The experimental data were statistically analyzed by one-way ANOVA.
The same experimental method was used as that for the alginate disaccharides and alginate trisaccharides. […] The serum creatinine in the mice was determined by using the creatinine assay kit from Nanjing Jiancheng, with the results shown in FIG. 32. During sampling, the kidneys on both sides were isolated, the cortex and inner medulla of each kidney were isolated, and the cortex was stored in trizol.

[4] = three doses 0.01, 0.05, 0.1 g/kg/day, vs I/R model group
[5] = 0.1 g/kg/day, vs cisplatin model group

| Substance | 24-hour urine output ([1]; 0.1 g/kg/day) | level of serum creatinine ([1]; 0.1 g/kg/day) | level of serum creatinine [1, 4] | 24-hour urine output [1, 4] | mRNA levels of Kim-1 and NGAL in kidney tissues ([1]; vs I/R model group) | inflammatory factors in kidney tissues (TLR4, p-NFκB/NFκB, pro-IL-1β/IL-1β) [1] | expressions of inflammatory factors [2, 5] | level of serum creatinine [2, 5] | levels of kidney injury factors (KIM-1 and NGAL) [2, 5] | level of serum creatinine [3] | gene expressions of inflammatory factors (IL-1β, IL-18, TNF-α, MCP-1) [3] | mRNA levels of Kim-1 and NGAL in kidney tissues [3] | protein expressions of renal inflammatory factors (TLR4, p-NFκB/NFκB, pro-IL-1β/IL-1β) [3] | renal histopathological manifestations ([1]; HE staining, 0.1 g/kg/day) | level of serum creatinine ([2]; C57BL/J6 mice, cisplatin 20 mg/kg i.p., intragastric 0.05, 0.1, 0.2 g/kg/day, 72 h) | mRNA levels of Kim-1 and NGAL in kidney tissues ([2]; renal cortex, Qpcr, vs cisplatin model group) | protein expressions of renal inflammatory factors (TLR4, p-NFκB/NFκB, IL-1β) ([2]; renal cortex, western blotting, vs cisplatin model group) | urine output ([2]; three doses 0.05, 0.1, 0.2 g/kg/day, 24 h to 72 h, dose dependent) | renal histopathological manifestations ([3]; HE staining, LPS+AOS3 group) |
| --- | --- | --- | --- | --- | --- | --- | --- | --- | --- | --- | --- | --- | --- | --- | --- | --- | --- | --- | --- |
| alginate tetrasaccharide sodium salt [AOS4] | obviously better than that of the mixed saccharides | restore to a normal level | decreased significantly | somewhat reduced | significantly reduce both markers | significantly reduce the production of inflammatory factors | decreased significantly | decreased significantly | decreased significantly | significantly reduced the serum creatinine | significantly reduced | significantly reduced | significantly inhibited the inflammatory responses of the kidneys |  |  |  |  |  |  |
| alginate disaccharide sodium salt [AOS2] |  | basically return to a normal level | decreased significantly | decreased somewhat | significantly reduced the expressions of both markers | reduced the production of inflammatory factors | decreased significantly | decreased significantly | decreased significantly | decreased significantly and could basically return to a normal level | significantly reduced the production of inflammatory factors | significantly reduced | significantly reduced the production of the inflammatory factors |  |  |  |  |  |  |
| alginate trisaccharide sodium salt [AOS3] | basically recovered to the normal level | basically return to a normal level | decreased significantly | somewhat decreased | significantly reduced the expressions of both markers | reduce the production of inflammatory factors | decreased significantly | decreased significantly | decreased significantly | decreased significantly and could basically return to a normal level | significantly reduced the production of inflammatory factors | significantly reduced | significantly reduced the production of the inflammatory factors | the renal tubules showed mild lesions | decreased significantly and could basically return to a normal level | significantly reduced | significantly reduced the production of the inflammatory factors | first somewhat decreased and then became normal | the glomeruli and renal tubules showed mild lesions |
